Measurements published in patent publication US20250154141A1 (University of Florida Research Foundation, Incorporated, priority 2021, published 2025).
Like-named read-outs stand apart in the source and are kept apart here.

Tests used:
Bcl-xL [1] = biological target: T1, Bcl-xL (Homo sapiens, UniProt Q07817); test: Protein degradation assay in Jurkat cells (Western blot), Bcl-xL; format: cell-based; design: endogenous in cells; host or cells: Jurkat cells; settings: for degradation of BCL-XL by Western blotting analysis: FIG. 1, 16 hours; for degradation of Bcl-xL (immunoblot): FIGS. 2-3, increasing concentrations 16 hours, 100 nM for various durations; for duration of Bcl-xL degradation after wash-off: FIGS. 2C, 3C, 16 h treatment, cultured without compound 0 to 48
T1 sequence (Q07817 whole entry): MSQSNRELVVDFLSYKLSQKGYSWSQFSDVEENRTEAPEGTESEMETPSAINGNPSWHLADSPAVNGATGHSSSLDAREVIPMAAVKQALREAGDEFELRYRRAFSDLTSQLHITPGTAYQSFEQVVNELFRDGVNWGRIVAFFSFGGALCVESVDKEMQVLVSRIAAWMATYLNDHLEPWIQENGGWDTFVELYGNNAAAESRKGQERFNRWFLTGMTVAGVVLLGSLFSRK
Description: (§1) Jurkat cells and human platelets were incubated with increasing concentrations of test compounds for 16 h. The cells were harvested and lysed in RIPA lysis buffer supplemented with protease and phosphatase inhibitor cocktails. An equal amount of protein ([…]) was resolved on a pre-cast 4-20% SDS-PAGE gel. Proteins were subsequently transferred to NOVEX PVDF membranes by electrophoresis. The membranes were blocked in blocking buffer (5% non-fat dry milk in TBS-T), and incubated with primary antibodies (at optimized concentrations) overnight at 4° C. After three washings in TBS-T, the membranes were incubated with an appropriate FIRP-conjugated secondary antibody for 1 h at room temperature. After extensive washing for three times, the proteins of interest was detected with ECL western blotting detection reagents and recorded with autoradiography (Pierce Biotech, Rockford, IL, USA). The primary antibodies for Bcl-xL (Cat #2762), Bcl-2 (Cat #2872), Mcl-1 (Cat #5453) and j-actin (Cat #4970) were purchased from Cell Signaling Technology. The relative band intensity was measured using ImageJ software and normalized to β-actin.

MOLT-4 = test: Cell viability assay (MTS) in MOLT-4 cells; format: cell-based; settings: Homo sapiens
Description: (§2) Acute lymphoblastic leukemia cells (MOLT-4 and RS4; 11) were incubated with increasing concentrations of Bcl-xL degraders for 48 h. Cell viability was measured by tetrazolium-based MTS assay.

Bcl-2 [2] = biological target: T2, Bcl-2 (Homo sapiens, UniProt P10415); test: Protein degradation assay in Jurkat cells (Western blot), Bcl-2; format: cell-based; design: endogenous in cells; host or cells: Jurkat cells; settings: for degradation of BCL-2 by Western blotting analysis: FIG. 1, 16 hours; for degradation of Bcl-2 (immunoblot): FIGS. 2-3, increasing concentrations 16 hours, 100 nM for various durations; for duration of Bcl-2 degradation after wash-off: FIGS. 2C, 3C, 16 h treatment, cultured without compound 0 to 48
T2 sequence (P10415 whole entry): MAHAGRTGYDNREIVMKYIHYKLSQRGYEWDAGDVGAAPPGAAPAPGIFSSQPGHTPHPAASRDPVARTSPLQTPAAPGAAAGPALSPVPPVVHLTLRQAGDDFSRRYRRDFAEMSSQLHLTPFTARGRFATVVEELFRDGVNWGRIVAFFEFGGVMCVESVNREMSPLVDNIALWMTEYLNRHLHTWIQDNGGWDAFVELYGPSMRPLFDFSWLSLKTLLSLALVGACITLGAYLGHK
Description: as §1

RS4; 11 = test: Cell viability assay (MTS) in RS4; 11 cells; format: cell-based; settings: Homo sapiens
Description: as §2

human platelets = test: Platelet toxicity assay (MTS viability); format: cell-based; settings: for IC50: Platelet, 48 h, human platelets; for Platelets/MOLT-4 IC50 Fold change: ratio of platelet IC50 to MOLT-4 IC50
Summary of the method: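 Washed human platelets at 2×10^8/mL in HEPES Tyrode's buffer with […] PGE1 and 0.2 U/mL apyrase, treated on a rotating platform at room temperature. Viability read by MTS after 48 h; IC50 calculated from the data.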

[3] = biological target: VCB E3 ligase complex and Bcl-xL (Homo sapiens, UniProt P40337+Q07817); test: Ternary complex assay (AlphaLISA); format: binding; settings: FIG. 5A
VCB E3 ligase complex and Bcl-xL, sequence (Q07817 whole entry): as the sequence (Q07817 whole entry) above
VCB E3 ligase complex and Bcl-xL, sequence (P40337 whole entry): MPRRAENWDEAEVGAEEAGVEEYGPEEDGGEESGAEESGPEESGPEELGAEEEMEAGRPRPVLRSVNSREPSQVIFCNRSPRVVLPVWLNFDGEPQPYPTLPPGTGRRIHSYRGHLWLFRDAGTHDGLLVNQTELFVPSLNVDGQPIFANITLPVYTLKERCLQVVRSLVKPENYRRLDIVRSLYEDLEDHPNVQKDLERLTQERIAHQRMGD
VCB E3 ligase complex and Bcl-xL, sequence (Q15370 whole entry partner): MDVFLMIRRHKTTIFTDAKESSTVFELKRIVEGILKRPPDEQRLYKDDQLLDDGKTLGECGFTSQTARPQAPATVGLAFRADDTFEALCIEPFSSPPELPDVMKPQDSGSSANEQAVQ
VCB E3 ligase complex and Bcl-xL, sequence (Q15369 whole entry partner): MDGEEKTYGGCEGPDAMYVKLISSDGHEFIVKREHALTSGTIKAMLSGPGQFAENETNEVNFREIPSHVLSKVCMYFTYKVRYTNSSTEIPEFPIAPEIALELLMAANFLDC
Description: To detect ternary complex formation induced by the compounds, AIphaLISA assay was used to measure luminescence signals arisen from proximity of Bcl-xL bounded acceptor beads and VHL- or CRBN—bounded donor beads. Briefly, to a 96-well PCR plate, 10 μL of 20 nM 6-His tagged Bcl-xL protein can be mixed with 10 μL of 20 nM GST-tagged VHL complex protein and 10 μL of serially diluted testing compounds. After incubating at room temperature for 30 […], 5 μL of 160 μg/mL Glutathione donor beads (PerkinEImer) was added and the mixture was incubated at dark for 15 min. 5 μL of 160 μg/mL of anti-His acceptor beads was added lastly and the mixture was incubated for an additional 45 min before being transferred to two adjacent wells (17 μL each) of 384-well white OptiPIate (PerkinEImer). The luminescence signals were detected on a Biotek's Synergy Neo2 multi-mode plate reader installed with an AphaScreen filter cube. All reagents were diluted in an assay buffer of 25 mM HEPES, pH 7.5, 100 mM NaCl, 0.1% BSA, and 0.005% tween 20 prior incubation.

Bcl-xL [4] = biological target: T1, Bcl-xL; test: Protein degradation assay in human platelets (Western blot), Bcl-xL; format: cell-based; design: endogenous in cells; host or cells: human platelets; settings: FIG. 4, 16 h
Description: as §1

Bcl-2 [5] = biological target: T2, Bcl-2; test: Protein degradation assay in human platelets (Western blot), Bcl-2; format: cell-based; design: endogenous in cells; host or cells: human platelets; settings: FIG. 4, 16 h
Description: as §1

[6] = MOLT-4, 48 h, read-out: Anti-Cancer Activity IC50 (48 hr) MOLT-4
[7] = RS4-11, 48 h, read-out: Anti-Cancer Activity IC50 (48 hr) RS4, 11
[8] = MOLT-4, Table 2, 48 hr, MTS, read-out: Anti-Cancer Activity IC50 (48 hr) MOLT-4
[9] = RS4-11, Table 2, 48 hr, MTS, read-out: Anti-Cancer Activity IC50 (48 hr) RS4, 11

With `Cc1ncsc1-c1ccc([C@H](C)NC(=O)[C@@H]2C[C@@H](O)CN2C(=O)[C@@H](NC(=O)CN2[C@@H]3CC[C@H]2CN(CC(=O)N2CCN(CC4(C)CCC(c5ccc(Cl)cc5)=C(CN5CCN(c6ccc(C(=O)NS(=O)(=O)c7ccc(N[C@H](CCN8CCOCC8)CSc8ccccc8)c(S(=O)(=O)C(F)(F)F)c7)cc6)CC5)C4)CC2)C3)C(C)(C)C)cc1` (some centres unmarked) [Compound 32] the “degradation of BCL-XL by Western blotting analysis” value (Bcl-xL [1]) was “exemplary degradation”, the IC50 (MOLT-4; [6]) was under 20 nM and the “degradation of BCL-2 by Western blotting analysis” value (Bcl-2 [2]) was “exemplary degradation”. The IC50 (RS4; 11; [7]) was under 20 nM.

In the case of `Cc1ncsc1-c1ccc([C@H](C)NC(=O)[C@@H]2C[C@@H](O)CN2C(=O)[C@@H](NC(=O)CCCCCCC(=O)N2CCN(CC3(C)CCC(c4ccc(Cl)cc4)=C(CN4CCN(c5ccc(C(=O)NS(=O)(=O)c6ccc(N[C@H](CCN7C[C@H]8C[C@@H]7CO8)CSc7ccccc7)c(S(=O)(=O)C(F)(F)F)c6)cc5)CC4)C3)CC2)C(C)(C)C)cc1` (some centres unmarked) [Compound 65], the “degradation of BCL-XL by Western blotting analysis” value (Bcl-xL [1]) is reported as “exemplary degradation”, the IC50 (MOLT-4; [8]) is reported as under 20 nM and the IC50 (MOLT-4; MOLT-4, Table 6, 48 h, read-out: MOLT-4 48 h IC50) is reported as 2.8 nM. For the same molecule, the “degradation of BCL-2 by Western blotting analysis” value (Bcl-2 [2]) was “exemplary degradation”, the IC50 (RS4; 11; [9]) was under 20 nM and the IC50 (RS4; 11; RS4-11, Table 6, 48 h, read-out: RS4 48 h IC50) was 4.2 nM. For the same molecule, the IC50 (human platelets; Homo sapiens, Table 6, 4 th time, read-out: Platelets 4 th time 48 h IC50) was 1600 nM and the “Platelets/MOLT-4 IC50 Fold change” value (human platelets; Table 6) was 711.

For `Cc1ncsc1-c1ccc([C@H](C)NC(=O)[C@@H]2C[C@@H](O)CN2C(=O)[C@@H](NC(=O)CN2CCN(CC(=O)N3CCN(C[C@]4(C)CCC(c5ccc(Cl)cc5)=C(CN5CCN(c6ccc(C(=O)NS(=O)(=O)c7ccc(N[C@H](CCN8CCCOCC8)CSc8ccccc8)c(S(=O)(=O)C(F)(F)F)c7)cc6)CC5)C4)CC3)CC2)C(C)(C)C)cc1` [Compound 77], the “degradation of Bcl-xL (immunoblot)” value (Bcl-xL [1]) was “dose- and time-dependently degraded”, the “duration of Bcl-xL degradation after wash-off” value (Bcl-xL [1]) was “long-lasting” and the “ternary complex formation with the VCB E3 ligase complex and Bcl-xL” value [3] was “formed ternary complexes”. For the same molecule, the IC50 (MOLT-4; [8]) was under 20 nM, the “Bcl-xL expression levels in human platelets” value (Bcl-xL [4]) was “do not affect” and the “degradation of Bcl-2 (immunoblot)” value (Bcl-2 [2]) was “dose- and time-dependently degraded”. For the same molecule, the “duration of Bcl-2 degradation after wash-off” value (Bcl-2 [2]) was “long-lasting”, the “Bcl-2 expression levels in human platelets” value (Bcl-2 [5]) was “do not affect” and the IC50 (RS4; 11; [9]) was under 20 nM.

In the case of `Cc1ncsc1-c1ccc([C@H](C)NC(=O)[C@@H]2C[C@@H](O)CN2C(=O)[C@@H](NC(=O)CN2CCN(CC(=O)N3CCN(CC4(C)CCC(c5ccc(Cl)cc5)=C(CN5CCN(c6ccc(C(=O)NS(=O)(=O)c7ccc(N[C@H](CCN8C[C@H]9C[C@@H]8CO9)CSc8ccccc8)c(S(=O)(=O)C(F)(F)F)c7)cc6)CC5)C4)CC3)CC2)C(C)(C)C)cc1` (some centres unmarked) [Compound 68], the “degradation of BCL-XL by Western blotting analysis” value (Bcl-xL [1]) is reported as “exemplary degradation”, the “degradation of Bcl-xL (immunoblot)” value (Bcl-xL [1]) is reported as “dose- and time-dependently degraded” and the “duration of Bcl-xL degradation after wash-off” value (Bcl-xL [1]) is reported as “long-lasting”. The IC50 (MOLT-4; [6]) was under 20 nM, the IC50 (MOLT-4; MOLT-4, 48 h, read-out: MOLT-4 48 h IC50) was 3.2 nM and the “Bcl-xL expression levels in human platelets” value (Bcl-xL [4]) was “do not affect”. For the same molecule, the “degradation of BCL-2 by Western blotting analysis” value (Bcl-2 [2]) was “exemplary degradation”, the “degradation of Bcl-2 (immunoblot)” value (Bcl-2 [2]) was “dose- and time-dependently degraded” and the “duration of Bcl-2 degradation after wash-off” value (Bcl-2 [2]) was “long-lasting”. For the same molecule, the “Bcl-2 expression levels in human platelets” value (Bcl-2 [5]) was “do not affect”, the IC50 (RS4; 11; [7]) was under 20 nM and the IC50 (RS4; 11; RS4-11, 48 h, read-out: RS4 48 h IC50) was 5 nM. The IC50 (human platelets; Table 3, mean of two independent experiments in triplicates, read-out: Platelets 48 h IC50) was 777 nM, the IC50 (human platelets; Table 6, 4 th time, read-out: Platelets 4 th time 48 h IC50) was 777 nM and the “Platelets/MOLT-4 IC50 Fold change” value (human platelets; Table 3) was 240. For the same molecule, the “Platelets/MOLT-4 IC50 Fold change” value (human platelets; Table 6) was 240.

With `Cc1ncsc1-c1ccc([C@H](C)NC(=O)[C@@H]2C[C@@H](O)CN2C(=O)[C@@H](NC(=O)CN2CCC(CC(=O)N3CCN(CC4(C)CCC(c5ccc(Cl)cc5)=C(CN5CCN(c6ccc(C(=O)NS(=O)(=O)c7ccc(N[C@H](CCN8CCOCC8)CSc8ccccc8)c(S(=O)(=O)C(F)(F)F)c7)cc6)CC5)C4)CC3)CC2)C(C)(C)C)cc1` (some centres unmarked) [Compound 26] the “degradation of BCL-XL by Western blotting analysis” value (Bcl-xL [1]) was “exemplary degradation”, the IC50 (MOLT-4; [8]) was under 20 nM and the “degradation of BCL-2 by Western blotting analysis” value (Bcl-2 [2]) was “exemplary degradation”. It also gave an IC50 (RS4; 11; [9]) of 20 to 100 nM.
